The source of these data is ChEMBL document CHEMBL1127922, “Synthesis and pharmacological evaluation of vinyl sulfone based anticancer agents” (Bioorg Med Chem Lett, 1994).

Data set [1] has as its system MCF7. Description: In vitro cytotoxicity in human tumor breast carcinoma MCF-7 cell lines. The format is functional.
For data set [2], the system named is Malme-3M. Briefly: In vitro cytotoxicity in human tumor melanoma MALME-3M cell lines. Format: functional.
The test system of data set [3] is A549. Description: In vitro cytotoxicity in human tumor lung carcinoma A-549 cell lines. Format: functional.
For data set [4], the system named is SK-MEL-5. Description: In vitro cytotoxicity in human tumor melanoma SK-MEL5c ell lines. Format: functional.
Data set [5] concerns HT-29. Briefly: In vitro cytotoxicity in human tumor colon adenocarcinoma HT-29 cell lines. Format: functional.
Data set [6] is described as follows: In vitro toxicity against ras transformed NRKE cell lines was determined. Format: cell-based. To be noted: rat, NRKE cells; read-out: LC50 (the source's name).
Data set [7] in a line: In vitro toxicity against ras transformed H/1.2-NRK cell lines was determined. The note with it: rat, ras transformed H/1.2-NRK cells; read-out: LC50 (the source's name).
A short description of data set [8]: Total number of toxic deaths of mice to the total number of mice tested was determined at a dose of 11 mg/kg; 0/8. Format: ADME, organism-based. On the set-up: dose 11 mg/kg. To be noted: mouse, in vivo.
The nature of data set [9]: (§1) Ratio of LC50(NRKE) to LC50(H/1.2-NRK) expressed as differential induces(DI) was determined. Format: ADME. The note with it: rat, NRKE cells and H/1.2-NRK cells.
A short description of data set [10]: In vitro toxicity against ras transformed N/4.2-NRK cell lines was determined. To be noted: rat, ras transformed N/4.2-NRK cells; read-out: LC50 (the source's name).
Data set [11] deals with Mus musculus. Briefly: In vivo inhibitory activity against HT-29 colon cells at maximally tolerated dose(MTD) of 33 mg/kg in mice. Format: functional.
The nature of data set [12]: (§2) Ratio of LC50(NRKE) to LC50(N/4.2-NRK ) expressed as differential induces(DI) was determined. Format: ADME. To be noted: rat, NRKE cells and N/4.2-NRK cells.
Data set [13] can be described thus: In vitro toxicity against ras transformed 3LL cell lines was determined. To be noted: ras transformed 3LL cells; read-out: LC50 (the source's name). Format: cell-based.
The test system of data set [14] is Mus musculus. Briefly: In vivo inhibitory activity against HT-29 colon cells at maximally tolerated dose(MTD) of 11 mg/kg in mice. Format: functional.
Data set [15] in a line: Total number of toxic deaths of mice to the total number of mice tested was determined at a dose of 33 mg/kg; 0/8. Format: ADME, organism-based. The arrangement: dose 33 mg/kg. To be noted: mouse, in vivo.
Data set [16] is described as follows: In vitro toxicity against ras transformed K/1-NRK cell lines was determined. To be noted: rat, ras transformed K/1-NRK cells; read-out: LC50 (the source's name).
Data set [17] can be described thus: Total number of toxic deaths of mice to the total number of mice tested was determined at a dose of 100 mg/kg; 1/8. Format: ADME, organism-based. The arrangement: dose 100 mg/kg. The note with it: mouse, in vivo.
The nature of data set [18]: Ratio of LC50(NRKE) to LC50(K/1-NRK) expressed as differential induces(DI) was determined. The format is functional.
Data set [19] in a line: as §1. The format is functional.
Data set [20] has as its system Mus musculus. Briefly: In vivo inhibitory activity against HT-29 colon cells at maximally tolerated dose(MTD) of 100 mg/kg in mice. The format is functional.
A short description of data set [21]: Ratio of LC50(NRKE) to LC50(3LL) expressed as differential induces(DI) was determined. The format is functional.
Data set [22] in a line: as §2. Format: functional.
A short description of data set [23]: Total number of toxic deaths of mice to the total number of mice tested was determined at a dose of 3 mg/kg; 0/8. Format: ADME, organism-based. The arrangement: dose 3 mg/kg. To be noted: mouse, in vivo.
Data set [24] concerns Mus musculus. Description: In vivo inhibitory activity against HT-29 colon cells at maximally tolerated dose(MTD) of 10 mg/kg in mice. Format: functional.
Data set [25] relates to Mus musculus. Briefly: In vivo inhibitory activity against HT-29 colon cells at maximally tolerated dose(MTD) of 3 mg/kg in mice. The format is functional.
A short description of data set [26]: Total number of toxic deaths of mice to the total number of mice tested was determined at a dose of 10 mg/kg; 0/8. On the set-up: dose 10 mg/kg. The format is ADME, organism-based. The note with it: mouse, in vivo.

With `C=C(CNC1CC(C(C)(C)C)CCC1O)S(C)(=O)=O` (stereo not given), the ED50 in [1] is recorded as 4.7e-07 M l-1; in [2], 6e-07 M l-1; in data set [3] it was 6.7e-07 M l-1; in data set [4], 1.9e-07 M l-1.

In the case of `CC(C)(C)C1CCC(O)C(N)C1` (stereo not given), the ED50 is more than 100000 nM in [5]; 0.00026 M l-1 in [1]; more than 100000 nM in data set [2]; 0.00016 M l-1 in [3]; 0.00045 M l-1 in data set [4].

On to `C=C(CN(CC(=C)S(C)(=O)=O)C1CC(C(C)(C)C)CCC1O)S(C)(=O)=O` (stereo not given), for which the CC50 in [6] was found to be 2400 nM; in data set [7], 2500 nM; in [10], 1400 nM; in [13] it was 800 nM; in data set [16], 600 nM. Also, the Toxic deaths in data set [8] and in [15] was 0 each time. For the same molecule, the ED50 in data set [1] is listed as 3.3e-07 M l-1; in data set [2], 4.2e-06 M l-1; in [3] it was 1.3e-06 M l-1; in data set [4] it was 4.6e-07 M l-1. Also, the selectivity ratio in data set [9] is 1; in data set [12], 0.6. The molecule further displayed an inhibition in vivo at 33 mg/kg in data set [11] of 0%. The molecule also showed an inhibition in vivo at 11 mg/kg in data set [14] of 0%.

Take `C=C(CN1C(=O)OC2CCC(C(C)(C)C)CC21)S(C)(=O)=O` (stereo not given): the CC50 in [6] stood at 4400 nM; in data set [7], 4700 nM; in data set [10], 5000 nM; in data set [13] it was 3100 nM; in data set [16], 2600 nM. For the same molecule, the Toxic deaths in data set [17] was determined as 1; in [15], 0. For the same molecule, the Ratio in [18] is 1.7; in data set [19] it was 0.9; in data set [21], 1.4; in [22] it was 0.9. Further, the ED50 is on record as 2.7e-06 M l-1 in data set [1], 1.1e-05 M l-1 in data set [2], 2.9e-05 M l-1 in data set [3] and 1.3e-06 M l-1 in data set [4]. At 100 mg/kg the inhibition in vivo in data set [20] was 0%. The same molecule yielded an inhibition in vivo at 33 mg/kg in data set [11] of 0%.

Consider `C=C(CN(C)C1CC(C(C)(C)C)CCC1O)S(C)(=O)=O` (stereo not given), for which the ED50 was determined as 1.7e-07 M l-1 in [1], 4.8e-07 M l-1 in data set [2], 1.4e-05 M l-1 in [3] and 5.6e-07 M l-1 in [4].

Turning to `C=C(CN1COC2CCC(C(C)(C)C)CC21)S(C)(=O)=O` (stereo not given), the CC50 in data set [6] was determined as 1400 nM; in data set [7], 2100 nM; in data set [10] it was 1800 nM; in data set [13], 500 nM; in data set [16] it was 500 nM. Moreover, the Toxic deaths in data set [23] and in data set [26] was 0 throughout. Moreover, the ED50 is listed as 2.4e-07 M l-1 in data set [1], 1e-06 M l-1 in data set [2], 1.2e-06 M l-1 in data set [3] and 9.6e-07 M l-1 in data set [4]. For the same molecule, the results for the Ratio in [19] and in data set [22] were 0.6 and 0.8, respectively. The same molecule had an inhibition in vivo at 10 mg/kg in data set [24] of 0%. Besides, testing at 3 mg/kg in data set [25] gave an inhibition in vivo of 0%.

For `C=C(CCl)S(C)(=O)=O`, the ED50 in data set [5] was found to be 2.2e-06 M l-1; in data set [1], 6.5e-06 M l-1; in [2], 6.5e-06 M l-1; in [3], 1.9e-05 M l-1; in data set [4], 3.2e-06 M l-1.

As usually defined, the inhibition in vivo is the relative decrease from the control value, in per cent. Higher therefore signals strong suppression.
